Measured values from ChEMBL document CHEMBL3352057, “Novel fluorinated pyrrolo[1,2-a]pyrazine-2,6-dione derivatives: synthesis and anticonvulsant evaluation in animal models of epilepsy” (Bioorg Med Chem, 2014).
Activity calls are given as the source filed them. The calls are words filed in the database; no cut-off is given here.

Columns and labels:
Rattus norvegicus [1] = assay: Anticonvulsant activity in Sprague-Dawley rat assessed as protection against maximal electroshock-induced seizures at 30 mg/kg, ip measured after 0.5 hr; format: functional, organism-based; set-up: dose 30 mg/kg
Mus musculus [2] = assay: Anticonvulsant activity in albino CF1 mouse assessed as protection against 32 mA current-induced seizures at 100 mg/kg, ip measured after 1 hr; format: functional, organism-based; set-up: dose 100 mg/kg
Mus musculus [3] = assay: Anticonvulsant activity in albino CF1 mouse assessed as protection against 44 mA current-induced seizures at 100 mg/kg, ip measured after 2 hrs; format: functional, organism-based; set-up: dose 100 mg/kg
Mus musculus [4] = assay: Anticonvulsant activity in ip dosed albino CF1 mouse assessed as protection against maximal electroshock-induced seizures; format: functional
Rattus norvegicus [5] = assay: Anticonvulsant activity in Sprague-Dawley rat assessed as protection against maximal electroshock-induced seizures at 30 mg/kg, ip measured after 1 hr; format: functional, organism-based; set-up: dose 30 mg/kg
Mus musculus [6] = assay: Anticonvulsant activity in albino CF1 mouse assessed as protection against 44 mA current-induced seizures at 100 mg/kg, ip measured after 0.25 hr; format: functional, organism-based; set-up: dose 100 mg/kg
Rattus norvegicus [7] = assay: Anticonvulsant activity in ip dosed hippocampal kindled albino Sprague-Dawley rat seizure model; format: functional; conditions: Hippocampus
Mus musculus [8] = assay: Neurotoxicity in 32 mA current-induced seizure albino CF1 mouse model at 100 mg/kg, ip measured after 0.25 hr; format: toxicity, organism-based; set-up: dose 100 mg/kg, route intraperitoneal; conditions: in vivo
Mus musculus [9] = assay: Neurotoxicity in 32 mA current-induced seizure albino CF1 mouse model at 100 mg/kg, ip measured after 4 hrs; format: toxicity, organism-based; set-up: dose 100 mg/kg, route intraperitoneal; conditions: in vivo
Rattus norvegicus [10] = assay: Neurotoxicity in MES Sprague-Dawley rat model at 30 mg/kg, po measured after 0.25 hr; format: toxicity, organism-based; set-up: dose 30 mg/kg, route oral; conditions: in vivo
Mus musculus [11] = assay: Anticonvulsant activity in albino CF1 mouse assessed as protection against iv infusion metrazol-induced seizures measured as clonus at 79 mg/kg, ip (reference value: 31.1 mg/kg); format: functional
Rattus norvegicus [12] = assay: Anticonvulsant activity in Sprague-Dawley rat assessed as protection against maximal electroshock-induced seizures at 30 mg/kg, ip measured after 0.25 hr; format: functional, organism-based; set-up: dose 30 mg/kg
Rattus norvegicus [13] = assay: Neurotoxicity in MES Sprague-Dawley rat model at 30 mg/kg, ip measured after 0.25 hr; format: toxicity, organism-based; set-up: dose 30 mg/kg, route intraperitoneal; conditions: in vivo
Mus musculus [14] = assay: Anticonvulsant activity in albino CF1 mouse assessed as protection against 32 mA current-induced seizures at 100 mg/kg, ip measured after 4 hrs; format: functional, organism-based; set-up: dose 100 mg/kg
Mus musculus [15] = assay: Neurotoxicity in 32 mA current-induced seizure albino CF1 mouse model at 100 mg/kg, ip measured after 1 hr; format: toxicity, organism-based; set-up: dose 100 mg/kg, route intraperitoneal; conditions: in vivo
Mus musculus [16] = assay: Anticonvulsant activity in albino CF1 mouse assessed as protection against 32 mA current-induced seizures at 100 mg/kg, ip measured after 0.25 hr; format: functional, organism-based; set-up: dose 100 mg/kg
Mus musculus [17] = assay: Anticonvulsant activity in ip dosed albino CF1 mouse assessed as protection against iv infusion metrazol-induced seizures; format: functional, organism-based
Rattus norvegicus [18] = assay: Neurotoxicity in MES Sprague-Dawley rat model at 30 mg/kg, ip measured after 4 hrs; format: toxicity, organism-based; set-up: dose 30 mg/kg, route intraperitoneal; conditions: in vivo
Rattus norvegicus [19] = assay: Anticonvulsant activity in Sprague-Dawley rat assessed as protection against maximal electroshock-induced seizures at 30 mg/kg, ip measured after 4 hrs; format: functional, organism-based; set-up: dose 30 mg/kg
Mus musculus [20] = assay: Anticonvulsant activity in ip dosed albino CF1 mouse assessed as protection against subcutaneous metrazol-induced seizures; format: functional
Mus musculus [21] = assay: Anticonvulsant activity in ip dosed albino CF1 mouse assessed as protection against 6 Hz current-induced seizures measured as time to peak effect; format: functional
Mus musculus [22] = assay: Anticonvulsant activity in albino CF1 mouse assessed as protection against iv infusion metrazol-induced seizures measured as time to twitch at 79 mg/kg, ip (reference value: 26.6 seconds); format: functional
Rattus norvegicus [23] = assay: Neurotoxicity in MES Sprague-Dawley rat model at 30 mg/kg, po measured after 2 hrs; format: toxicity, organism-based; set-up: dose 30 mg/kg, route oral; conditions: in vivo
Mus musculus [24] = assay: Neurotoxicity in 44 mA current-induced seizure albino CF1 mouse model at 100 mg/kg, ip measured after 2 hrs; format: toxicity, organism-based; set-up: dose 100 mg/kg, route intraperitoneal; conditions: in vivo
Rattus norvegicus [25] = assay: Anticonvulsant activity in Sprague-Dawley rat assessed as protection against maximal electroshock-induced seizures at 30 mg/kg, po measured after 0.5 hr; format: functional, organism-based; set-up: dose 30 mg/kg
Mus musculus [26] = assay: Anticonvulsant activity in albino CF1 mouse assessed as protection against 44 mA current-induced seizures at 100 mg/kg, ip measured after 0.5 hr; format: functional, organism-based; set-up: dose 100 mg/kg
Mus musculus [27] = assay: Anticonvulsant activity in albino CF1 mouse assessed as protection against iv infusion metrazol-induced seizures measured as weight at 79 mg/kg, ip (reference value: 26.75 grams); format: functional
Mus musculus [28] = assay: Neurotoxicity in 44 mA current-induced seizure albino CF1 mouse model at 100 mg/kg, ip measured after 0.25 hr; format: toxicity, organism-based; set-up: dose 100 mg/kg, route intraperitoneal; conditions: in vivo
Mus musculus [29] = assay: Anticonvulsant activity in albino CF1 mouse assessed as protection against maximal electroshock-induced seizures at 100 mg/kg, ip measured after 0.5 hr; format: functional, organism-based; set-up: dose 100 mg/kg
Mus musculus [30] = assay: Anticonvulsant activity in albino CF1 mouse assessed as protection against iv infusion metrazol-induced seizures measured as time to clonus at 79 mg/kg, ip (reference value: 29.4 seconds); format: functional
Mus musculus [31] = assay: Neurotoxicity in 44 mA current-induced seizure albino CF1 mouse model at 100 mg/kg, ip measured after 0.5 hr; format: toxicity, organism-based; set-up: dose 100 mg/kg, route intraperitoneal; conditions: in vivo
Mus musculus [32] = assay: Anticonvulsant activity in ip dosed albino CF1 mouse assessed as protection against maximal electroshock-induced seizures measured as time to peak effect; format: functional
[33] = Neurotoxicity in ip dosed albino CF1 mouse; format: toxicity, organism-based; conditions: in vivo
Mus musculus [34] = assay: Anticonvulsant activity in albino CF1 mouse assessed as protection against iv infusion metrazol-induced seizures measured as time to clonus at 24 mg/kg, ip (reference value: 29.4 seconds); format: functional
Mus musculus [35] = assay: Neurotoxicity in albino CF1 mouse at 100 mg/kg, ip measured after 0.25 hr; format: toxicity, organism-based; set-up: dose 100 mg/kg, route intraperitoneal; conditions: in vivo
Mus musculus [36] = assay: Neurotoxicity in albino CF1 mouse at 100 mg/kg, ip measured after 4 hrs; format: toxicity, organism-based; set-up: dose 100 mg/kg, route intraperitoneal; conditions: in vivo
Mus musculus [37] = assay: Anticonvulsant activity in albino CF1 mouse assessed as protection against 44 mA current-induced seizures at 100 mg/kg, ip measured after 4 hrs; format: functional, organism-based; set-up: dose 100 mg/kg
Mus musculus [38] = assay: Anticonvulsant activity in albino CF1 mouse assessed as protection against iv infusion metrazol-induced seizures measured as time to twitch at 24 mg/kg, ip (reference value: 26.6 seconds); format: functional
Mus musculus [39] = assay: Anticonvulsant activity in ip dosed corneal kindled albino CF1 mouse seizure model assessed as time to peak effect; format: functional
Mus musculus [40] = assay: Neurotoxicity in 44 mA current-induced seizure albino CF1 mouse model at 100 mg/kg, ip measured after 1 hr; format: toxicity, organism-based; set-up: dose 100 mg/kg, route intraperitoneal; conditions: in vivo
Mus musculus [41] = assay: Anticonvulsant activity in albino CF1 mouse assessed as protection against iv infusion metrazol-induced seizures measured as weight at 24 mg/kg, ip (reference value: 26.75 grams); format: functional
[42] = Neurotoxicity in ip dosed Sprague-Dawley rat; format: toxicity, organism-based; conditions: in vivo
Rattus norvegicus [43] = assay: Anticonvulsant activity in ip dosed Sprague-Dawley rat assessed as protection against maximal electroshock-induced seizures; format: functional
Rattus norvegicus [44] = assay: Anticonvulsant activity in Sprague-Dawley rat assessed as protection against maximal electroshock-induced seizures at 30 mg/kg, ip measured after 2 hrs; format: functional, organism-based; set-up: dose 30 mg/kg
Rattus norvegicus [45] = assay: Neurotoxicity in MES Sprague-Dawley rat model at 30 mg/kg, po measured after 0.5 hr; format: toxicity, organism-based; set-up: dose 30 mg/kg, route oral; conditions: in vivo
Mus musculus [46] = assay: Anticonvulsant activity in ip dosed corneal kindled albino CF1 mouse seizure model; format: functional

O=C1NC(=O)[C@@H]2CCCN2[C@H]1c1cccc(OC(F)(F)F)c1
Activity (Rattus norvegicus [1]): Active
Activity (Mus musculus [2]): Active
Activity (Mus musculus [3]): inactive
ED50 (Mus musculus [4]): 76 µmol/kg
Activity (Rattus norvegicus [5]): Active
Activity (Mus musculus [6]): Active
ED50 (Rattus norvegicus [7]): 48 µmol/kg
Activity (Mus musculus [8]): Toxic
Activity (Mus musculus [9]): Non-toxic
Activity (Rattus norvegicus [10]): Non-toxic
Activity (Mus musculus [11]): 97.2 mg/kg
Activity (Rattus norvegicus [12]): Active
Activity (Rattus norvegicus [13]): Non-toxic
Activity (Mus musculus [14]): inactive
Activity (Mus musculus [15]): Non-toxic
Activity (Mus musculus [16]): Active
Activity (Mus musculus [17]): Dose-dependent effect
Activity (Rattus norvegicus [18]): Non-toxic
Activity (Rattus norvegicus [19]): inactive
ED50 (Mus musculus [20]): 200 µmol/kg
Time (Mus musculus [21]): 0.25 h
Time (Mus musculus [22]): 63.1 s
Activity (Rattus norvegicus [23]): Non-toxic
Activity (Mus musculus [24]): Non-toxic
Activity (Rattus norvegicus [25]): inactive
Activity (Mus musculus [26]): Active
Activity (Mus musculus [27]): 27.6 g
Activity (Mus musculus [28]): Toxic
Activity (Mus musculus [29]): Active
Time (Mus musculus [30]): 94.6 s
Activity (Mus musculus [31]): Toxic
Time (Mus musculus [32]): 0.25 h
TD50 [33]: 252 µmol/kg
Time (Mus musculus [34]): 39.4 s
Activity (Mus musculus [35]): Toxic
Activity (Mus musculus [36]): Non-toxic
Activity (Mus musculus [37]): inactive
Time (Mus musculus [38]): 33.3 s
Time (Mus musculus [39]): 0.25 h
Activity (Mus musculus [40]): Non-toxic
Activity (Mus musculus [41]): 26.8 g
TD50 [42]: 114 µmol/kg
ED50 (Rattus norvegicus [43]): 40 µmol/kg
Activity (Rattus norvegicus [44]): inactive
Activity (Rattus norvegicus [45]): Non-toxic
ED50 (Mus musculus [46]): 171 µmol/kg
